These results are taken from patent US20230019491A1, “PYRIMIDINE TBK/IKKe INHIBITOR COMPOUNDS AND USES THEREOF” (Merck Patent GmbH, priority 2017, published 2023).

One assay has as its target T1, TBK1 (Homo sapiens, UniProt Q9UHD2).
T1 sequence (Q9UHD2 1-729): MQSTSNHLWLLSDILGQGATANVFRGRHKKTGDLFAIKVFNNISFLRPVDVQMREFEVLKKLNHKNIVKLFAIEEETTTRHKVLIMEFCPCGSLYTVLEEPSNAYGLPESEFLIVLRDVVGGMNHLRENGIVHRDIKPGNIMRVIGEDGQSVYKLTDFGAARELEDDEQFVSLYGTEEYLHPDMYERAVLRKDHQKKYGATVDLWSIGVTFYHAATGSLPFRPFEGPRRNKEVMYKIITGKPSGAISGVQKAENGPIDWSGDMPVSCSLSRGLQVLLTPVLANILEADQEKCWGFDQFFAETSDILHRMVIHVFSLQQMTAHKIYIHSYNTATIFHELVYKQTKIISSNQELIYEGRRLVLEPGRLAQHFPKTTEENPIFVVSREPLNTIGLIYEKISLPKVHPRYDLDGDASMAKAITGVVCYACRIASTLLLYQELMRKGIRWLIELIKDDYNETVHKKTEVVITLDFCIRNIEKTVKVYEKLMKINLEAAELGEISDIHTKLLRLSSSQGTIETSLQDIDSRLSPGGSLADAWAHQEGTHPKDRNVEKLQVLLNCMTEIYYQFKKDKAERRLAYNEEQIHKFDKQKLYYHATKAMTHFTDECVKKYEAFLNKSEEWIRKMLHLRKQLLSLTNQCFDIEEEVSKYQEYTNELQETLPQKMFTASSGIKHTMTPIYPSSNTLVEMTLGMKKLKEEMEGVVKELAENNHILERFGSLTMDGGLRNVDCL
The assay is described as follows: TBK biochemical assay. The note with it: 10 point 1:4 dose response, 30 uM top concentration, 90 min at 25° C., LabChip EZ Reader II; read-out: TBK1_IC50. The procedure, abridged: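 Substrate and product were separated and quantified by microfluidic mobility-shift read (LabChip). 10 uM staurosporine served as the full-inhibition control, and the reference compound was tested from 1 uM final.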

Another assay has as its target T2, IKKε (Homo sapiens, UniProt Q14164).
T2 sequence (Q14164 1-716): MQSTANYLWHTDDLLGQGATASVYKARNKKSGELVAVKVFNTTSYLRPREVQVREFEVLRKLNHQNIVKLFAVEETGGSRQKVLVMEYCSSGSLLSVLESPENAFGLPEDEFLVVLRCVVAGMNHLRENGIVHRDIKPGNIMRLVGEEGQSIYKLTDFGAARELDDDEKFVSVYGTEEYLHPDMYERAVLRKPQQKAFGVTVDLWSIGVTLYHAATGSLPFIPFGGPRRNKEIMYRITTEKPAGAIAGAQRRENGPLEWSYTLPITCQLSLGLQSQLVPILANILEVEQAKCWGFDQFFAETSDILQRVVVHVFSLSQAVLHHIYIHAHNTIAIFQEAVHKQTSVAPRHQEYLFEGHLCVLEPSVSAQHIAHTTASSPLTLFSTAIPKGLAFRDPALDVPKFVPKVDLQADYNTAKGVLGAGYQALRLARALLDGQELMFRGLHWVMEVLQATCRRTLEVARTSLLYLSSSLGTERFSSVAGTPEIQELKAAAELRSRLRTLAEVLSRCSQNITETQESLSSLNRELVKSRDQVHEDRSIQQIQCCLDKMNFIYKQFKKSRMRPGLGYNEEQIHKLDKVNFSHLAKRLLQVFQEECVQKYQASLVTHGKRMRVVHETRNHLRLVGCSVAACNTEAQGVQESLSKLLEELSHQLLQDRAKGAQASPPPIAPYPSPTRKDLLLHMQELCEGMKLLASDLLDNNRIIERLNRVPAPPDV
The assay is described as follows: IKKε biochemical assay. As to conditions: 10 point 1:4 dose response, 30 uM top concentration, 90 min at 25° C., LabChip EZ Reader II; read-out: IKKε_IC50. The method in brief: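 Compounds in 1% DMSO final were incubated with IKKε enzyme and substrate at 25° C. for 90 min, then stopped. Substrate and product peaks were resolved by LabChip EZ Reader II mobility-shift read-out. Staurosporine at 10 uM final served as the full-inhibition control.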

Where only a bound is given, the exact number is not on record here.

As for `CN1CCN(c2ccc(Nc3nccc(-c4ccc(OC5CCOCC5)c(C#N)c4)n3)nc2)CC1` [Example 164, 5-(2-[[5-(4-methylpiperazin-1-yl)pyridin-2-yl]amino]pyrimidin-4-yl)-2-(oxan-4-yloxy)benzonitrile], the IC50 at TBK1 and on IKKε was under 0.1 µM each time.

As for `CN(C)C(=O)c1ccc(Nc2nccc(-c3ccc(OC4CCOCC4)c(C#N)n3)n2)cn1` [Example 28, 5-([4-[6-cyano-5-(oxan-4-yloxy)pyridin-2-yl]pyrimidin-2-yl]amino)-N,N-dimethylpyridine-2-carboxamide], the IC50 at TBK1 and on IKKε was under 0.1 µM in each case.

Take `COc1cc(Nc2nccc(-c3ccc(OC4CCOCC4)c(C#N)c3)n2)cnc1C1CCN(C)CC1` [Example 57, 5-(2-[[5-methoxy-6-(1-methylpiperidin-4-yl)pyridin-3-yl]amino]pyrimidin-4-yl)-2-(oxan-4-yloxy)benzonitrile]: the IC50 on TBK1 and on IKKε was under 0.1 µM each time.

As for `COc1cc(Nc2nccc(-c3ccc(OC4CCOCC4)c(C#N)c3)n2)cnc1C(=O)N(C)C` [Example 50, 5-([4-[3-cyano-4-(oxan-4-yloxy)phenyl]pyrimidin-2-yl]amino)-3-methoxy-N,N-dimethylpyridine-2-carboxamide], the IC50 at TBK1 and at IKKε was under 0.1 µM throughout.

Consider `C[C@H](O)C(=O)N1CCC(Oc2ccc(-c3ccnc(Nc4ccncc4)n3)cc2C#N)C(F)(F)C1` (stereo partly drawn) [Example 207, 2-([3,3-difluoro-1-[(2S)-2-hydroxypropanoyl]piperidin-4-yl]oxy)-5-[2-[(pyridin-4-yl)amino]pyrimidin-4-yl]benzonitrile], for which the IC50 on TBK1 and at IKKε was under 0.1 µM throughout.

Regarding `COc1nc(Nc2nccc(-c3ccc(O[C@@H]4CCN(C(=O)[C@@H](C)O)C[C@H]4F)c(C#N)c3)n2)ccc1C1CCN(C2COC2)CC1` [Example 193, 2-[(3R,4R)-3-Fluoro-1-((R)-2-hydroxy-propionyl)-piperidin-4-yloxy]-5-[2-(2-methoxy-1′-oxetan-3-yl-1′,2′,3′,4′,5′,6′-hexahydro-[3,4′]bipyridinyl-6-ylamino)-pyrimidin-4-yl]-benzonitrile], the IC50 on TBK1 and on IKKε was 0.1 to 1 µM throughout.

Turning to `COc1nc(Nc2nccc(-c3ccc(OC4CCOCC4)c(C#N)c3)n2)ccc1C1CCN(C)CC1` [Example 40, 5-(2-[[6-methoxy-5-(1-methylpiperidin-4-yl)pyridin-2-yl]amino]pyrimidin-4-yl)-2-(oxan-4-yloxy)benzonitrile], the IC50 at TBK1 and on IKKε was under 0.1 µM throughout.

In the case of `COc1nc(Nc2nccc(-c3ccc(OC4CCN(C(=O)c5cocn5)CC4)c(C#N)c3)n2)ccc1C(=O)N(C)C` [Example 77, 6-([4-[3-cyano-4-([1-[(1,3-oxazol-4-yl)carbonyl]piperidin-4-yl]oxy)phenyl]pyrimidin-2-yl]amino)-2-methoxy-N,N-dimethylpyridine-3-carboxamide], the IC50 on TBK1 and on IKKε was under 0.1 µM in each case.

Take `COc1nc(Nc2nccc(-c3ccc(O[C@H]4CCN(C)C[C@H]4F)c(C#N)c3)n2)ccc1N1CCN(C)CC1` [Example 96, 2-(((3R,4S)-3-fluoro-1-methylpiperidin-4-yl)oxy)-5-(2-((6-methoxy-5-(4-methylpiperazin-1-yl)pyridin-2-yl)amino)pyrimidin-4-yl)benzonitrile]: the IC50 at TBK1 and at IKKε was under 0.1 µM each time.

With `COc1cc(Nc2nccc(-c3ccc(OC4CCN(C(=O)[C@H](C)O)CC4(F)F)c(C#N)c3)n2)ccc1N1CCN(C2COC2)CC1` (stereo partly drawn) [Example 217, 2-([3,3-difluoro-1-[(2S)-2-hydroxypropanoyl]piperidin-4-yl]oxy)-5-[2-([3-methoxy-4-[4-(oxetan-3-yl)piperazin-1-yl]phenyl]amino)pyrimidin-4-yl]benzonitrile], the IC50 at TBK1 and at IKKε was under 0.1 µM in each case.

In the case of `COc1nc(Nc2nccc(-c3ccc(OC4CCOCC4)c(C#N)c3)n2)ccc1C(=O)N1CC2COCC2C1` (stereo not drawn) [Example 12, 5-(2-[[5-([hexahydro-1H-furo[3,4-c]pyrol-5-yl]carbonyl)-6-methoxypyridin-2-yl]amino]pyrimidin-4-yl)-2-(oxan-4-yloxy)benzonitrile], the IC50 on TBK1 and at IKKε was under 0.1 µM throughout.

As for `COc1nc(Nc2nccc(-c3ccc(OC4CCN(C(=O)[C@@H](C)O)CC4(F)F)c(C#N)c3)n2)ccc1N1CCN(C)C[C@@H]1C` (stereo partly drawn) [Example 111, 2-[3,3-Difluoro-1-((R)-2-hydroxy-propionyl)-piperidin-4-yloxy]-5-{2-[5-((S)-2,4-dimethyl-piperazin-1-yl)-6-methoxy-pyridin-2-ylamino]-pyrimidin-4-yl}-benzonitrile], the IC50 at TBK1 and at IKKε was under 0.1 µM each time.

For `C[C@H](O)C(=O)N1CCC(Oc2ccc(-c3nc(Nc4ccc(C5CCN(C6COC6)CC5)cc4)ncc3F)cc2C#N)C(F)(F)C1` (stereo partly drawn) [Example 301, 2-({3,3-difluoro-1-[(2S)-2-hydroxypropanoyl]piperidin-4-yl}oxy)-5-[5-fluoro-2-({4-[1-(oxetan-3-yl)piperidin-4-yl]phenyl}amino)pyrimidin-4-yl]benzonitrile], the IC50 at TBK1 and at IKKε was under 0.1 µM throughout.

As for `COc1nc(Nc2nccc(-c3ccc(OC4CCN(C(=O)CO)CC4)c(C#N)c3)n2)ccc1C(=O)N(C)C` [Example 73, 6-[[4-(3-cyano-4-[[1-(2-hydroxyacetyl)piperidin-4-yl]oxy]phenyl)pyrimidin-2-yl]amino]-2-methoxy-N,N-dimethylpyridine-3-carboxamide], the IC50 on TBK1 and at IKKε was under 0.1 µM in each case.

As to `COc1nc(Nc2ncc(F)c(-c3ccc(O[C@@H]4CCN(C(=O)[C@H](C)O)CC4(F)F)c(C#N)c3)n2)ccc1N1CCN(C2COC2)CC1` [Example 289, 2-[[(4R)-3,3-difluoro-1-[(2S)-2-hydroxypropanoyl]piperidin-4-yl]oxy]-5-[5-fluoro-2-([6-methoxy-5-[4-(oxetan-3-yl)piperazin-1-yl]pyridin-2-yl]amino)pyrimidin-4-yl]benzonitrile], the IC50 on TBK1 and at IKKε was under 0.1 µM throughout.

In the case of `COc1nc(Nc2nccc(-c3ccc(OC4CCN(C(=O)[C@H](C)O)CC4(F)F)c(C#N)n3)n2)ccc1N1CCN(C2COC2)CC1` (stereo partly drawn) [Example 304, 3-([3,3-difluoro-1-[(2S)-2-hydroxypropanoyl]piperidin-4-yl]oxy)-6-[2-([6-methoxy-5-[4-(oxetan-3-yl)piperazin-1-yl]pyridin-2-yl]amino)pyrimidin-4-yl]pyridine-2-carbonitrile], the IC50 on TBK1 and at IKKε was under 0.1 µM in each case.

Turning to `COc1cc(Nc2nccc(-c3ccc(OC4CCN(C(=O)[C@H](C)O)CC4(F)F)c(C#N)c3)n2)ncc1N1CCN(C2COC2)CC1` (stereo partly drawn) [Example 322, 2-([33-difluoro-1-[(2S)-2-hydroxypropanoyl]piperidin-4-yl]oxy)-5-[2-([4-methoxy-5-[4-(oxetan-3-yl)piperazin-1-yl]pyridin-2-yl]amino)pyrimidin-4-yl]benzonitrile], the IC50 at TBK1 and at IKKε was under 0.1 µM throughout.

On to `COc1cc(Nc2nccc(-c3ccc(OC4CCN(C(=O)[C@H](C)O)CC4)c(C#N)c3)n2)ncc1N1CCN(C2COC2)CC1` [Example 318, 2-([1-[(2S)-2-hydroxypropanoyl]piperidin-4-yl]oxy)-5-[2-([4-methoxy-5-[4-(oxetan-3-yl)piperazin-1-yl]pyridin-2-yl]amino)pyrimidin-4-yl]benzonitrile], for which the IC50 on TBK1 and at IKKε was 0.1 to 1 µM throughout.
